Columns and labels:
[1] = system: primary human melanocytes; experiment: Intracellular melanin content of primary human melanocytes with NNT inhibitors; type: cell-based; conditions: FIG. 10D
Excerpt: Primary human melanocytes were isolated from normal discarded foreskins and were established in TIVA medium as described previously (Khaled et al., 2010) or in Medium 254 (Life Technologies, #M254500) (Allouche et al., 2015). Human melanoma cell line UACC257 (sex unspecified) was obtained from the National Cancer Institute (NCI), Frederick Cancer Division of Cancer Treatment and Diagnosis (DCTD) Tumor Cell Line Repository. SK-MEL-30 ([…]) human melanoma cell line was from Memorial Sloan Kettering Cancer Center. Both melanoma cell lines have been authenticated by our lab using ATCC's STR profiling service. UACC257 and SK-MEL-30 cells were cultured in DMEM and RPMI medium (Life Technologies, #11875119) respectively, supplemented with 10% fetal bovine serum and 1% penicillin/streptomycin/L-glutamine in a humidified atmosphere of 95% air and 5% CO2 at 37° C.
In vitro culture with NNT inhibitors: 2,3-Butanedione 97% (2,3 BD) (Sigma Aldrich, #B85307) (1 μM, 10 μM, 100 μM, 2 mM), N,N-Dicyclohexylcarbodiimide (DCC) (Sigma Aldrich, #D80002) (1 mM, 2 mM, 10 mM), and Palmitoyl coenzyme A lithium salt (Sigma Aldrich, #P9716) (10 μM, 2 mM) were reconstituted with DMSO (American Type Culture Collection, 4-X).
Melanin quantification: Equal numbers of cells were plated in 6-well plates. The cells were then harvested 72-96 hours post siRNA or NNT inhibitors compounds, as indicated in the legends, pelleted, washed in PBS and counted. 10^6 cells were used for measurement of protein concentration with the Pierce BCA protein assay (Thermo Fisher Scientific, #23225) and 10^6 cells were resuspended in 60 μl of 1 N NaOH solution and incubated at 60° C. for 2 h or until the melanin was completely dissolved. After cooling down to room temperature, samples were centrifuged at 500×g for 10 min and the supernatants were loaded onto a 96-well plate. The melanin content was determined by measuring the absorbance at 405 nm on an Envision plate reader, compared with a melanin standard (0 to 50 μg/ml; Sigma Aldrich, #M8631). Melanin content was expressed as micrograms per milligram of protein.

[2] = system: Zebrafish overexpressing NNT (NNT OE); experiment: 2,3BD treatment of zebrafish overexpressing NNT; type: in vivo; conditions: 100 μM for 24 hours, FIG. 11C
Protocol: The human NNT gene was cloned into the MiniCoopR expression plasmid to allow melanocyte-specific overexpression of NNT (Ceol et al., 2011). The mcr:NNT plasmid was injected into Tubingen zebrafish embryos at the single cell stage and incorporated into the genome through the use of Tol2 transgenesis. Larvae were raised for 5 days and then at least three images were obtained and quantified using a Nikon SMZ18 Stereomicroscope. At least 5 zebrafish embryos of each group were analyzed after 5 days using the […] software enabling pixel-based color quantification. Wildtype Tübingen zebrafish were placed in a 24 well plate at 72 hours post-fertilization, with 10 larvae per well for a total twenty larvae per condition. Larvae were treated for 24 hours with either 2,3BD (1 μM, 10 μM, 100 μM, 1 mM; Sigma Aldrich, #B85307), DCC (1 μM, 10 μM, 50 μM, 100 μM; Sigma Aldrich, #D80002), or DMSO (1:500) in E3 embryo medium. At 4 days post fertilization, larvae were imaged using a Nikon SMZ18 Stereomicroscope. Melanocytes from at least 5 zebrafish embryos of each group for each experiment were analyzed using the FIJI software enabling pixel-based color quantification.

[3] = system: human skin explants; experiment: Pigmentation of human skin explants with topical NNT inhibitors
[4] = system: primary melanocytes; experiment: Cell viability of primary melanocytes, different doses; type: cell-based, human; conditions: FIG. 10C
Protocol: Cell viability assay: Human melanoma cell lines and isolated primary cultured human melanocytes were propagated and tested in early passage (Passages 7 to 9). The effects of NNT inhibitors (2,3BD, DCC, and Palmitoyl coenzyme A lithium salt) on cell viability were evaluated by the CellTiter-Glo Luminescent Cell Viability Assay (Promega, #G7570) and measurement of luminescence was performed on an EnVision 2104 Multilabel Reader (PerkinElmer). Human melanoma cell lines and primary melanocytes were plated on 96-well white plates (10,000 cells/well) and were treated with the NNT inhibitors at the indicated concentrations for 24 h.

[5] = system: human skin; experiment: UVB-induced DNA damage (CPD, γ-H2AX) in human skin; type: cell-based; conditions: 50 mM for 5 days
Protocol: Skin samples considered surgical waste were obtained de-identified from healthy donors (IRB #2013P000093) undergoing reconstructive surgery, according to institutional regulations. Full thickness human abdominal skin explants were cultured in petri dishes with a solid phase and liquid phase phenol red free DMEM medium containing 20% penicillin/streptomycin/glutamine, 5% fungizone (Gibco), and 10% fetal bovine serum. Compounds were applied strictly on top of the explants, making sure no drip occurred into the underlying media. For UV irradiation experiments, a UV lamp (UV Products) was used at 1000 mJ/cm^2 UVB. For immunofluorescence, paraffin sections were deparaffinized by xylene and rehydrated gradually with ethanol to distilled water. Sections were submerged in 0.01 M citrate buffer and boiled for 10 min for retrieval of antigen. The sections were washed with TBST (0.1% Tween 20) and blocked with protein blocking solution (Agilent, #X090930-2) for 1 h at room temperature before application of primary antibody [1:100 diluted in Antibody Diluent (DAKO, #S3022)] and incubation overnight at 4° C. The following day, sections were washed with TBST three times and incubated with secondary antibody Alexa Fluor 647 goat anti-mouse IgG (G+L) (ThermoFisher Scientific, #A-21236), Alexa Fluor 594 F(ab)2 fragment of goat anti-rabbit IgG (G+L) (ThermoFisher Scientific, #A-11072), or Alexa Fluor 555 goat anti-rabbit IgG (ThermoFisher Scientific, #A-21428). After washing, the tissue sections were cover-slipped with mounting medium (SlowFade® Gold Antifade Reagent with DAPI, ThermoFisher Scientific, #S36939). MaxBlock Autofluorescence Reducing Reagent Kit (MaxVision Biosciences, #MB-L) was used to quench skin tissue autofluorescence according to the reagent instructions. […]

Structure (SMILES): CC(=O)C(C)=O [2,3BD, 2,3-Butanedione]
- intracellular melanin content ([1]; 2.3 BD 2 mM for 72 hours): significantly increased the intracellular melanin content
- melanin on simultaneous treatment with siNNT ([1]; siNNT plus 2,3 BD): did not further increase the melanin
- melanocytic pigmentation of NNT overexpressing fish [2]: prevented the NNT OE-induced decrease in melanocytic pigmentation
- melanin by Fontana-Masson staining ([3]; 2,3BD treated skin, FIGS. 3Ei and 10F): increased melanin
- cell damage or inflammation by H&E staining ([3]; FIG. 3Eii): no obvious cell damage or inflammation
- skin pigmentation ([3]; abdominal skin, phototype 1-2, single topical treatment 1M or 11M, after 5 days): strong induction of pigmentation
- skin pigmentation ([3]; daily application of 50 mM, skin type 3-4, after 5 days): significantly increased pigmentation
- cell viability ([4]; different doses, relative to vehicle): no impacts on cell viability
- in vitro toxicity ([4]; doses up, primary melanocytes): no significant toxicity
- toxicity by γ-H2AX [5]: non-toxic
- UVB-induced CPD formation ([5]; skin type 2-3, then 1000 mJ/cm^2 UVB): protected against formation of UVB-induced CPD
- UVB-induced γ-H2AX induction ([5]; then UVB): could protect human skin from UVB-induced γ-H2AX induction

Source: US20240307283A1, “COMPOSITIONS AND METHODS FOR DECREASING PIGMENTATION” (The General Hospital Corporation, priority 2021, published 2024)
